Source: patent publication US4987126A, “3'-deamino-4'-deoxy-4'-amino anthracyclines” (Farmitalia Carlo Erba S.r.l., priority 1988, dated 1991)

Key:
[1] = tested on: human lung adenocarcinoma (A549); test: Effect against human lung adenocarcinoma (A549); format: in vivo, human (tumor transplanted in Swissnude mice); settings: i.v. once a week for three weeks, 1 week after last treatment; optimal dose (mg/Kg): DXR 6, Ia 9, IIa 5
Procedure: (§1) The compounds were tested by dissolving them, as hydrochlorides, in water.
(§2) ^a experiment was performed in Swissnude mice, transplanted s.c. with
(§3) ^b treatment i.v. was carried out once a week for three weeks,
(§4) starting when the tumor was palpable
(§5) ^c percentage of tumor growth inhibition in respect to control was
(§6) calculated 1 week after the last treatment

[2] = tested on: Human Colon adenocarcinoma (LoVo); test: Effect against Human Colon adenocarcinoma (LoVo); format: in vivo, human (tumor transplanted in Swissnude mice); settings: for tumor inhibition: i.v. once a week for three weeks, 1 week after last treatment, optimal dose (mg/Kg): DNR 8 tox, DXR 6, Ia 7.5, IIa 4-5; for activity on LoVo tumor (in words): in vivo
Procedure: as §1
^1 experiment was performed in Swissnude mice, transplanted s.c. with
as §3, §4, §5, §6

[3] = tested on: Human Colon ca. (LoVo/DXR); test: Effect against Human Colon ca. (LoVo/DXR); format: in vivo, human (tumor transplanted in Swissnude mice); settings: i.v. once a week for three weeks, 1 week after last treatment; optimal dose (mg/Kg): DXR 6, Ia 7.5, IIa 4
Procedure: as §1, §2, §3, §4, §5, §6

Lewis Lung ca. = test: Effect against Lewis Lung ca.; format: in vivo, mouse (C57 B1/6 mice); settings: for tumor inhibition / T/C (median survival time of treated mice/median survival time of control × 100): C57 B1/6 mice, 10^5 cells i.v., i.v. once a week for three weeks from day 1, optimal dose (mg/Kg): DXR 6-7.5, DNR 8, Ia 7.5, IIa 4; for tumor inhibition: 1 week after last treatment; for tumor growth inhibition, Lewis lung ca. (in words) / survival time of mice, Lewis lung ca. (in words): model sensitive to DXR; for survival time of mice, Lewis lung ca. (in words): versus DXR
Procedure: as §1
^a experiment was performed in C57 B1/6 mice, inoculated i.v. with
as §3
starting on day 1 after tumor transplant
as §5, §6
^d median survival time of treated mice/median survival time of […]

P388 ascitic leukemia = test: Effect against P388 ascitic leukemia; format: in vivo, murine (CDF1 mice); settings: for T/C % (median survival time of treated mice/median survival time of control × 100): P388, CDF1 mice, 10^6 cells i.v., single i.v. dose day 1 at optimal dose (mg/Kg): DNR 22.5, DXR 16.9, Ia 19.5, IIa 4; for Toxic death: P388-bearing CDF1 mice, autoptic findings, at optimal dose (mg/Kg): DNR 22.5, DXR 16.9, Ia 19.5, IIa 4
Procedure: (§7) The antileukemic activity of Ia and IIa, in comparison with DXR (doxorubicin) and DNR (daunorubicin), was tested against murine P388 and Gross Leukemias.
as §1
^a Experiments were performed in CDF1 mice, inoculated i.v. with
(§8) ^b Single i.v. dose on day 1 after tumor inoculum.
(§9) ^c Median survival time of treated mice/median survival time of
^d Evaluated on the basis of autoptic findings.

murine Gross leukemia = test: Effect against murine Gross leukemia; format: in vivo, murine (C3H/He mice); settings: for T/C % (median survival time of treated mice/median survival time of control × 100): Gross leukemia, C3H/He mice, 2 × 10^6 cells i.v., single i.v. dose day 1 at optimal dose (mg/Kg): DNR 15, DXR 13-16.9, Ib 65, Ia 12.5, IIa 4, Id 6.7, IIc 1; for Toxic death: Gross leukemia-bearing C3H/He mice, autoptic findings, at optimal dose (mg/Kg): DNR 15, DXR 13-16.9, Ib 65, Ia 12.5, IIa 4, Id 6.7, IIc 1; for activity on increase of the survival time of mice, Gross leukemia (in words): mouse, in vivo; for potency on Gross leukemia (in words): among all compounds tested
Procedure: as §7, §1
^a Experiments were performed in C3H/He mice, inoculated i.v. with 2
as §8, §9
^3 Evaluated on the basis of autoptic findings.

[4] = tested on: Murine Mammary ca. (MTV/DXR); test: Effect against Murine Mammary ca. (MTV/DXR); format: in vivo; settings: C3H/He mice, i.v. once a week for three weeks, optimal dose (mg/Kg): DXR 6, IIa 5; for tumor inhibition: 1 week after last treatment
Procedure: as §1
^a experiment was carried out in C3H/He mice, transplanted s.c. with
as §3, §4, §5, §6

solid tumors = test: evaluation against different human and solid tumors (Tables 4-8, overall); format: in vivo, human and murine; settings: IIa versus Ia
Procedure: as §1

CC(=O)[C@]1(O)Cc2c(O)c3c(c(O)c2[C@@H](O[C@H]2CC[C@H](N)[C@H](C)O2)C1)C(=O)c1ccccc1C3=O [Ia, 4-demethoxy-3'-deamino-4'-deoxy-4'-aminodaunorubicin] was tested, and the tumor inhibition [1] was 13%, the tumor inhibition [2] was 11% and the “activity on LoVo tumor (in words)” value [2] was “completly inactive”. For the same molecule, the tumor inhibition [3] was 13%, the tumor inhibition (Lewis Lung ca.) was 7% and the “T/C (median survival time of treated mice/median survival time of control × 100)” value (Lewis Lung ca.) was 104%. For the same molecule, the “tumor growth inhibition, Lewis lung ca. (in words)” value (“tumor growth inhibition” for short) (Lewis Lung ca.) was “inactive”, the “survival time of mice, Lewis lung ca. (in words)” value (Lewis Lung ca.) was “inactive” and the “T/C % (median survival time of treated mice/median survival time of control × 100)” value (P388 ascitic leukemia) was 200%. For the same molecule, the Toxic death (P388 ascitic leukemia) was 0/10, the “T/C % (median survival time of treated mice/median survival time of control × 100)” value (murine Gross leukemia) was 240% and the Toxic death (murine Gross leukemia) was 0/10.
Molecule COc1cccc2c1C(=O)c1c(O)c3c(c(O)c1C2=O)C[C@@](O)(C(=O)CO)C[C@@H]3O[C@H]1C[C@H](N)[C@H](O)[C@H](C)O1 [DXR, doxorubicin, reference compound] has a tumor inhibition [1] of 44%, a tumor inhibition [2] of 62% and a tumor inhibition [3] of 30%. For the same molecule, the tumor inhibition (Lewis Lung ca.) was 85-95%, the “T/C (median survival time of treated mice/median survival time of control × 100)” value (Lewis Lung ca.) was 148-169% and the “tumor growth inhibition” value (Lewis Lung ca.) was “sensitive to DXR”. The “T/C % (median survival time of treated mice/median survival time of control × 100)” value (P388 ascitic leukemia) was 225%, the Toxic death (P388 ascitic leukemia) was 0/10 and the “T/C % (median survival time of treated mice/median survival time of control × 100)” value (murine Gross leukemia) was 200-250%. For the same molecule, the Toxic death (murine Gross leukemia) was 0/10, the “activity on increase of the survival time of mice, Gross leukemia (in words)” value (murine Gross leukemia) was “active” and the tumor inhibition [4] was 52%. It also gave a T/C [4] of 84%.
COc1cccc2c1C(=O)c1c(O)c3c(c(O)c1C2=O)C[C@@](O)(C(C)=O)C[C@@H]3O[C@H]1CC[C@H](N)[C@H](C)O1 [Ib, 3'-deamino-4'-deoxy-4'-aminodaunorubicin] was tested, and the “T/C % (median survival time of treated mice/median survival time of control × 100)” value (murine Gross leukemia) was 240% and the Toxic death (murine Gross leukemia) was 0/10.
For COc1cccc2c1C(=O)c1c(O)c3c(c(O)c1C2=O)C[C@@](O)(C(C)=O)C[C@@H]3O[C@H]1C[C@H](N)[C@H](O)[C@H](C)O1 [DNR, daunorubicin, reference compound], the “toxicity mark at the dose” value ([2]; 8 mg/Kg i.v. once a week for three weeks, Swissnude mice) was “tox”, the tumor inhibition [2] was 54% and the tumor inhibition (Lewis Lung ca.) was 47%. For the same molecule, the “T/C (median survival time of treated mice/median survival time of control × 100)” value (Lewis Lung ca.) was 135%, the “T/C % (median survival time of treated mice/median survival time of control × 100)” value (P388 ascitic leukemia) was 222% and the Toxic death (P388 ascitic leukemia) was 0/10. The “T/C % (median survival time of treated mice/median survival time of control × 100)” value (murine Gross leukemia) was 200%, the Toxic death (murine Gross leukemia) was 0/10 and the “activity on increase of the survival time of mice, Gross leukemia (in words)” value (murine Gross leukemia) was “active”.
In the case of CC(=O)[C@]1(O)Cc2c(O)c3c(c(O)c2[C@@H](O[C@H]2CC[C@@H](N)[C@H](C)O2)C1)C(=O)c1ccccc1C3=O [Compound IIa, 4-demethoxy-3'-deamino-4'-deoxy-4'-epi-aminodaunorubicin], the tumor inhibition [1] is reported as 49%, the tumor inhibition [2] is reported as 54-56% and the “activity on LoVo tumor (in words)” value [2] is reported as “same activity than LoVo/DXR”. For the same molecule, the tumor inhibition [3] was 41%, the tumor inhibition (Lewis Lung ca.) was 84% and the “T/C (median survival time of treated mice/median survival time of control × 100)” value (Lewis Lung ca.) was 122%. For the same molecule, the “tumor growth inhibition” value (Lewis Lung ca.) was “active, as DXR”, the “survival time of mice, Lewis lung ca. (in words)” value (Lewis Lung ca.) was “less active” and the “potency and activity against all solid tumors tested (in words)” value (solid tumors) was “more potent and active than Ia”. For the same molecule, the “T/C % (median survival time of treated mice/median survival time of control × 100)” value (P388 ascitic leukemia) was 225%, the Toxic death (P388 ascitic leukemia) was 0/10 and the “T/C % (median survival time of treated mice/median survival time of control × 100)” value (murine Gross leukemia) was 160%. For the same molecule, the Toxic death (murine Gross leukemia) was 0/10, the “potency on Gross leukemia (in words)” value (murine Gross leukemia) was “most potent” and the tumor inhibition [4] was 44%. The T/C [4] was 146%.
For C[C@@H]1O[C@@H](O[C@H]2C[C@](O)(C(=O)CO)Cc3c(O)c4c(c(O)c32)C(=O)c2ccccc2C4=O)CC[C@H]1N [IIc, 4-demethoxy-3'-deamino-4'-deoxy-4'-epi-aminodoxorubicin], the “T/C % (median survival time of treated mice/median survival time of control × 100)” value (murine Gross leukemia) was 217%, the Toxic death (murine Gross leukemia) was 0/10 and the “potency on Gross leukemia (in words)” value (murine Gross leukemia) was “most potent”.
In the case of COc1cccc2c1C(=O)c1c(O)c3c(c(O)c1C2=O)C[C@@](O)(C(=O)CO)C[C@@H]3O[C@H]1CC[C@H](N)[C@H](C)O1 [Id, 3'-deamino-4'-deoxy-4'-aminodoxorubicin], the “T/C % (median survival time of treated mice/median survival time of control × 100)” value (murine Gross leukemia) is reported as 200% and the Toxic death (murine Gross leukemia) is reported as 0/10.
